In patent US8173675B2, “Substituted amino-thiourea compounds for combating animal pests” (BASF SE, priority 2007, dated 2012):

Columns and labels:
[1] = tested on: Vetch Aphid (Megoura viciae); assay: Vetch aphid (Megoura viciae) test, sprayed bean leaf disks in microtiterplates; type: in vivo; details: foliar, 144 h, bean leaf disks sprayed with 2.5 μl, 6 days, read-out: mortality compared to untreated controls
Method: The active compounds were formulated in 1:3 DMSO:water. Bean leaf disks were placed into microtiterplates filled with 0.8% agar-agar and 2.5 ppm OPUS™. The leaf disks were sprayed with 2.5 μl of the test solution and 5 to 8 adult aphids were placed into the microtiterplates which were then closed and kept at 22-24° C. and 35-45% under fluorescent light for 6 days. Mortality was assessed on the basis of vital, reproduced aphids. Tests were replicated 2 times.

[2] = tested on: Cowpea Aphid (aphis craccivora); assay: Cowpea aphid (aphis craccivora) test, colonized potted cowpea plants sprayed; type: in vivo; details: population reduction recorded after 24, 72, and 120 hours
Method: (§1) In the following tests, the formulated solutions of the active compounds were diluted to an active ingredient concentration of 300 ppm, if not otherwise described, and the diluted solutions were applied in the below mentioned tests.
The active compounds were formulated in 50:50 acetone:water. Potted cowpea plants colonized with 100-150 aphids of various stages were sprayed after the pest population has been recorded. Population reduction was recorded after 24, 72, and 120 hours.

[3] = tested on: Green Peach Aphid (Myzus persicae); assay: Green peach aphid (Myzus persicae) test, infested bell pepper leaves dipped in test solution; type: in vivo; details: 120 h, determined after 5 days, read-out: mortality of green peach aphid in comparison with untreated controls
Method: (§2) The active compounds were formulated in a mixture of 50 vol.-% acetone:50 vol.-% water. A nonionic surfactant (Kinetic®) was included in the solution at a volume of 0.01% v/v.
as §1
Bell pepper plants at the first true-leaf stage were infested prior to treatment by placing heavily infested leaves from the main aphid colony on top of the treatment plants. The aphids were allowed to transfer overnight to accomplish an infestation of 30-40 aphids per plant and the host leaves were removed. The infested leaves of the test plants were then dipped and agitated in the test solution for 3 seconds and allowed to dry in a fume hood. Test plants were maintained under fluorescent lighting in a 24-hr photoperiod at 25° C. and 20-40% relative humidity. Mortality on the treated plants, relative to mortality on untreated check plants, was determined after 5 days.

[4] = tested on: Cotton Aphid (Aphis gossypii); assay: Cotton aphid (Aphis gossypii) test, infested cotton cotyledons dipped in test solution; type: in vivo; details: 120 h, determined after 5 days, read-out: mortality of cotton aphid (Aphis gossypii, mixed life stages) in comparison with untreated controls
Method: as §2, §1
Cotton plants at the cotyledon stage were infested prior to treatment by placing a heavily infested leaf from the main aphid colony on top of each cotyledon. The aphids were allowed to transfer overnight and the host leaf was removed. The infested cotyledons were then dipped and agitated in the test solution for 3 seconds and allowed to dry in a fume hood. Test plants were maintained under fluorescent lighting in a 24-hr photoperiod at 25° C. and 20-40% relative humidity. Aphid mortality on the treated plants, relative to mortality on untreated check plants, was determined after 5 days.

[5] = tested on: Silverleaf Whitefly (bemisia argentifolii); assay: Silverleaf whitefly (bemisia argentifolii) test, cotton cotyledons dipped, whitefly adults introduced; type: in vivo; details: 72 h, whitefly adults on dipped cotton cotyledons, assessed 3 days after treatment, read-out: mortality compared to untreated controls
Method: as §1
The active compounds were formulated in 50:50 acetone:water and 100 ppm Kinetica™ surfactant.
Selected cotton plants were grown to the cotyledon state (one plant per pot). The cotyledons were dipped into the test solution to provide complete coverage of the foliage and placed in a well-vented area to dry. Each pot with treated seedling was placed in a plastic cup and 10 to 12 whitefly adults (approximately 3-5 day old) were introduced. The insects were colleted using an aspirator and an 0.6 cm, non-toxic TygonÒ tubing (R-3603) connected to a barrier pipette tip. The tip, containing the collected insects, was then gently inserted into the soil containing the treated plant, allowing insects to crawl out of the tip to reach the foliage for feeding. The cups were covered with a reusable screened lid (150 micron mesh polyester screen PeCap from Tetko Inc). Test plants were maintained in the holding room at about 25° C. and 20-40% relative humidity for 3 days avoiding direct exposure to the fluorescent light (24 hour photoperiod) to prevent trapping of heat inside the cup. Mortality was assessed 3 days after treatment of the plants.

| Structure (SMILES) | mortality at 2500 ppm [1] | mortality at 300 ppm [2] | mortality at 300 ppm [3] | mortality at 300 ppm [4] | mortality at 300 ppm [5] | melting point |
| --- | --- | --- | --- | --- | --- | --- |
| CC1(C)Cc2c(F)cccc2C1NC(=S)NCCO (stereo not drawn) [Compound example 6] | ≥ 75% | ≥ 75% | ≥ 75% | ≥ 75% | – | – |
| CC(=O)OCCNC(=S)NC1c2cccc(F)c2CC1(C)C (stereo not drawn) [Compound example 5] | ≥ 75% | ≥ 75% | ≥ 75% | ≥ 75% | ≥ 75% | – |
| OCCNC(=S)NC1CSc2c(F)cccc21 (stereo not drawn) [Compound example 2, 1-(7-Fluoro-2,3-dihydro-benzo[b]thiophen-3-yl)-3-(2-hydroxy-ethyl)-thiourea] | ≥ 75% | ≥ 75% | ≥ 75% | ≥ 75% | – | – |
| OCCNC(=S)NC1COc2ccc(F)cc21 (stereo not drawn) [Compound example 1, 1-(5-Fluoro-2,3-dihydro-benzofuran-3-yl)-3-(2-hydroxy-ethyl)-thiourea] | ≥ 75% | ≥ 75% | ≥ 75% | ≥ 75% | – | – |
| CC(=O)OCCNC(=S)NC1CSc2c(F)cccc21 (stereo not drawn) [Compound example 3, Acetic acid 2-[3-(7-fluoro-2,3-dihydro-benzo[b]thiophen-3-yl)thioureido]-ethyl ester] | ≥ 75% | ≥ 75% | ≥ 75% | – | ≥ 75% | – |
| CC1Cc2c(F)cccc2C1NC(=S)NCCO (stereo not drawn) [Compound example 8] | ≥ 75% | ≥ 75% | ≥ 75% | ≥ 75% | – | – |
| CC(=O)OCCNC(=S)NC1CC(C)c2c(F)cccc21 (stereo not drawn) [Compound example 7] | ≥ 75% | – | ≥ 75% | ≥ 75% | ≥ 75% | – |
| OCCNC(=S)NC1(c2ccccc2)CCc2ccccc21 (stereo not drawn) [Compound example 4] | – | – | – | – | – | 67 to 69 °C |
